Test results from patent publication US11123337B2, “4-methylsulfonyl-substituted piperidine urea compounds” (MYOKARDIA, INC., priority 2015, dated 2021).

biological target: bovine cardiac myosin (Bos taurus, UniProt Q9BE39); assay: Myosin activation assay (PK/LDH-coupled ATPase, bovine cardiac myofibrils); type: biochemical; details: AC20 = concentration at which total response is increased by twenty percent
Summary of the method: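 Values are the concentrations raising the ATPase rate by 20% or 50% over DMSO, from 10-point dose responses fitted with four parameters. Rate is NADH loss at 340 nm via PK/LDH coupling, read 15 min at room temperature, in pH 6.8 PIPES with 50 μM ATP. Bovine cardiac myofibrils were held at pCa ~6 or pCa 10.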

Sequence of bovine cardiac myosin (Q9BE39 whole entry): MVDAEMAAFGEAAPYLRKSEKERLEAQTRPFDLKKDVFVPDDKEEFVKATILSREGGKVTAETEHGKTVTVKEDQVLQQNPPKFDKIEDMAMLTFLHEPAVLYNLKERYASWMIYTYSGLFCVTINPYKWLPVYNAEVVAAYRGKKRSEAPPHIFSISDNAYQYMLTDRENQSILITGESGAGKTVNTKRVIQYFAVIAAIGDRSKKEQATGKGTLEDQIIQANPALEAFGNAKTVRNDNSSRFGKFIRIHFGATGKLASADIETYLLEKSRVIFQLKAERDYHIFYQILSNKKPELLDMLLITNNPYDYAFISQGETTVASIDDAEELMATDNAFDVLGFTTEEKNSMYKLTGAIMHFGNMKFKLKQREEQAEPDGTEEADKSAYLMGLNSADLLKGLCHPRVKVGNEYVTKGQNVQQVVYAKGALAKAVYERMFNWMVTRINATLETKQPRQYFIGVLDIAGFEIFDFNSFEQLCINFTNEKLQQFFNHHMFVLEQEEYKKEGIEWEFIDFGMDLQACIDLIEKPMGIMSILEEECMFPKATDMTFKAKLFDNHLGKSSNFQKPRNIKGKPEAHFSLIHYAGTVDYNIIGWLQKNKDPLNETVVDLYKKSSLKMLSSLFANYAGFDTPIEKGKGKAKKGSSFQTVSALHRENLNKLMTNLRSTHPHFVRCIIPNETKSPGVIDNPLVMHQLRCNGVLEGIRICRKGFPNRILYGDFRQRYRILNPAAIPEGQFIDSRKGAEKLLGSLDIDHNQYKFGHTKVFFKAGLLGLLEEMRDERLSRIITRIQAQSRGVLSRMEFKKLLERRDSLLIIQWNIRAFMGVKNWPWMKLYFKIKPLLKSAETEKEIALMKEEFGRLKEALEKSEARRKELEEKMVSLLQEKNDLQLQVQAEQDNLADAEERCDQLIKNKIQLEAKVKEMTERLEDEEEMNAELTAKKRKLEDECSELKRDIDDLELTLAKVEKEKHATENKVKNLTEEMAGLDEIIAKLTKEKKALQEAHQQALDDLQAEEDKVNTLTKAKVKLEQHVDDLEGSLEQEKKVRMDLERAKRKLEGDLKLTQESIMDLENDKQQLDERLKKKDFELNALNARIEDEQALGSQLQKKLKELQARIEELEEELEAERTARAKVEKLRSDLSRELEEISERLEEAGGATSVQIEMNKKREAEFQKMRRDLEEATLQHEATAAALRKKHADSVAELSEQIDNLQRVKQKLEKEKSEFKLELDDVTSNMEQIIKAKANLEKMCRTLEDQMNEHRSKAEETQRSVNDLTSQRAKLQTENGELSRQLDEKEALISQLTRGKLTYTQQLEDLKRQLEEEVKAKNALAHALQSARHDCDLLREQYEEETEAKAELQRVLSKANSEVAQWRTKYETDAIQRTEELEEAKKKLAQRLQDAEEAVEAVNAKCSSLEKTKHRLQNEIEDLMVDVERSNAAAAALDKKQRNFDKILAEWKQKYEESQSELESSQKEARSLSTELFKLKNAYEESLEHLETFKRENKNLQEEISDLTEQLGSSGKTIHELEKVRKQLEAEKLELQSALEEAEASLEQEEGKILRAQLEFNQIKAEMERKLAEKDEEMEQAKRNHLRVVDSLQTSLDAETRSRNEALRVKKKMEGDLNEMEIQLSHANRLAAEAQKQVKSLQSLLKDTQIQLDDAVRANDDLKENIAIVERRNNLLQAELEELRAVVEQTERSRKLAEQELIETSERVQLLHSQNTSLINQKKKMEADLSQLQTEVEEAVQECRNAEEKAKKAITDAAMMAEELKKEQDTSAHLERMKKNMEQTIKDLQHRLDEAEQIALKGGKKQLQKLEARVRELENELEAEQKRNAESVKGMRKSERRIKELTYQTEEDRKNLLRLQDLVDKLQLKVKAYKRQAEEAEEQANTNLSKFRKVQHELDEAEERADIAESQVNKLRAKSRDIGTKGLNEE
Sequence of bovine cardiac myosin (P85100 whole entry partner): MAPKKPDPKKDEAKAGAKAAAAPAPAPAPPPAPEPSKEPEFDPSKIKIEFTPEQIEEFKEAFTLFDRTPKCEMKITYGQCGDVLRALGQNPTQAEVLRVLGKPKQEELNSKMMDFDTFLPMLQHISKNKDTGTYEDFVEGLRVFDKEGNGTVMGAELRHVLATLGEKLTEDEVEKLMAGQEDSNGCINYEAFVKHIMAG
Sequence of bovine cardiac myosin (Q3SZE5 whole entry partner): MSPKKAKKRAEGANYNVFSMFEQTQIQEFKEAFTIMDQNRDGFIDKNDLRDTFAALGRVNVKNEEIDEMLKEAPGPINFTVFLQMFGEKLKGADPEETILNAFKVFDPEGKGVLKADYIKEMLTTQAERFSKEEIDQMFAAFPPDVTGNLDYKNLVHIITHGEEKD

| Structure (SMILES) | Myosin Activation (AC20) |
| --- | --- |
| Cc1ccc(NC(=O)N2CCC(C(F)(F)S(=O)(=O)c3cn(C)nc3C(F)F)CC2)cn1 [Compound 80, 4-(((3-(difluoromethyl)-1-methyl-1H-pyrazol-4-yl)sulfonyl)difluoromethyl)-N-(6-methylpyridin-3-yl)piperidine-1-carboxamide] | + (+ represents myosin activation value AC20 > 5 μM) |
| CC(C)(C1CCN(C(=O)Nc2cncc(F)c2)CC1)S(=O)(=O)c1cccc(F)c1 [Compound 119, 4-(2-((3-fluorophenyl)sulfonyl)propan-2-yl)-N-(5-fluoropyridin-3-yl)piperidine-1-carboxamide] | ++ (++ represents myosin activation value AC20 from 2 μM-5 μM) |
| CC(C)(C1CCN(C(=O)Nc2cncnc2)CC1)S(=O)(=O)c1cccc(F)c1 [Compound 132, 4-(2-((3-fluorophenyl)sulfonyl)propan-2-yl)-N-(pyrimidin-5-yl)piperidine-1-carboxamide] | + (+ represents myosin activation value AC20 > 5 μM) |
| Cn1cnc(S(=O)(=O)C(F)(F)C2CCN(C(=O)Nc3ccnnc3)CC2)c1 [Compound 84, 4-(difluoro((1-methyl-1H-imidazol-4-yl)sulfonyl)methyl)-N-(pyridazin-4-yl)piperidine-1-carboxamide] | + (+ represents myosin activation value AC20 > 5 μM) |
| CC(F)(C1CCN(C(=O)Cc2ccnnc2)CC1)S(=O)(=O)c1cccc(F)c1 (centres unmarked) [Compound 10, 1-(4-(1-Fluoro-1-((3-fluorophenyl)sulfonyl)ethyl)piperidin-1-yl)-2-(pyridazin-4-yl)ethan-1-one] | + (+ represents myosin activation value AC20 > 5 μM) |
| C[C@@H](O)c1cc(NC(=O)N2CCC([C@@](C)(F)S(=O)(=O)c3cn(C)nc3C(F)F)CC2)ccn1 [Compound 304, 4-((S)-1-((3-(difluoromethyl)-1-methyl-1H-pyrazol-4-yl)sulfonyl)-1-fluoroethyl)-N-(2-((R)-1-hydroxyethyl)pyridin-4-yl)piperidine-1-carboxamide] | + (+ represents myosin activation value AC20 > 5 μM) |
| Cc1ccc(NC(=O)N2CCC([C@@](C)(F)S(=O)(=O)c3cn(C)nc3C(F)F)CC2)cn1 [Compound 258, (S)-4-(1-((3-(difluoromethyl)-1-methyl-1H-pyrazol-4-yl)sulfonyl)-1-fluoroethyl)-N-(6-methylpyridin-3-yl)piperidine-1-carboxamide] | + (+ represents myosin activation value AC20 > 5 μM) |
| COc1ccc(S(=O)(=O)C(C)(F)C2CCN(C(=O)Nc3ccnnc3)CC2)cn1 (centres unmarked) [Compound 9, 4-(1-fluoro-1-((6-methoxypyridin-3-yl)sulfonyl)ethyl)-N-(pyridazin-4-yl)piperidine-1-carboxamide] | +++ (+++ represents myosin activation value AC20 < 2 μM) |
| Cn1cc(S(=O)(=O)C(C)(C)C2CCN(C(=O)Nc3cnoc3)CC2)c(C(F)F)n1 [Compound 157, 4-(2-((3-(difluoromethyl)-1-methyl-1H-pyrazol-4-yl)sulfonyl)propan-2-yl)-N-(isoxazol-4-yl)piperidine-1-carboxamide] | +++ (+++ represents myosin activation value AC20 < 2 μM) |
| Cn1cc(S(=O)(=O)C(F)(F)C2CCN(C(=O)Nc3ccc(F)nc3)CC2)c(C(F)F)n1 [Compound 81, 4-(((3-(difluoromethyl)-1-methyl-1H-pyrazol-4-yl)sulfonyl)difluoromethyl)-N-(6-fluoropyridin-3-yl)piperidine-1-carboxamide] | + (+ represents myosin activation value AC20 > 5 μM) |
| O=C(Nc1ccncc1)N1CCC(CS(=O)(=O)c2cccc(F)c2)CC1 [Compound 33, 4-(((3-fluorophenyl)sulfonyl)methyl)-N-(pyridin-4-yl)piperidine-1-carboxamide] | + (+ represents myosin activation value AC20 > 5 μM) |
| Cc1ccccc1S(=O)(=O)CC1CCN(C(=O)Nc2ccncc2)CC1 [Compound 39, N-(pyridin-4-yl)-4-((o-tolylsulfonyl)methyl)piperidine-1-carboxamide] | + (+ represents myosin activation value AC20 > 5 μM) |
| Cn1cc(S(=O)(=O)[C@@](C)(F)C2CCN(C(=O)Nc3ccc(C#N)nc3)CC2)c(C(F)F)n1 [Compound 299, (R)-N-(6-cyanopyridin-3-yl)-4-(1-((3-(difluoromethyl)-1-methyl-1H-pyrazol-4-yl)sulfonyl)-1-fluoroethyl)piperidine-1-carboxamide] | +++ (+++ represents myosin activation value AC20 < 2 μM) |
| O=C(Nc1ccnnc1)N1CCC(C2(S(=O)(=O)c3cccc(F)c3)CCC2)CC1 [Compound 43, 4-(1-((3-fluorophenyl)sulfonyl)cyclobutyl)-N-(pyridazin-4-yl)piperidine-1-carboxamide] | +++ (+++ represents myosin activation value AC20 < 2 μM) |
| O=C(Nc1cncs1)N1CCC(C2(S(=O)(=O)c3cccc(F)c3)CC2)CC1 [Compound 37, 4-(1-((3-fluorophenyl)sulfonyl)cyclopropyl)-N-(thiazol-5-yl)piperidine-1-carboxamide] | +++ (+++ represents myosin activation value AC20 < 2 μM) |
| Cn1nc(C(F)(F)F)cc1S(=O)(=O)[C@@](C)(F)C1CCN(C(=O)Nc2ccnc(F)c2)CC1 [Compound 296, (R)-4-(1-fluoro-1-((1-methyl-3-(trifluoromethyl)-1H-pyrazol-5-yl)sulfonyl)ethyl)-N-(2-fluoropyridin-4-yl)piperidine-1-carboxamide] | +++ (+++ represents myosin activation value AC20 < 2 μM) |
| CC(C)(C1CCN(C(=O)Nc2cnoc2)CC1)S(=O)(=O)c1cccc(F)c1 [Compound 158, 4-(2-((3-fluorophenyl)sulfonyl)propan-2-yl)-N-(isoxazol-4-yl)piperidine-1-carboxamide] | +++ (+++ represents myosin activation value AC20 < 2 μM) |
| Cn1nc(C2CC2)cc1S(=O)(=O)C(F)(F)C1CCN(C(=O)Nc2ccnnc2)CC1 [Compound 24, 4-(((3-Cyclopropyl-1-methyl-1H-pyrazol-5-yl)sulfonyl)difluoromethyl)-N-(pyridazin-4-yl)piperidine-1-carboxamide] | ++ (++ represents myosin activation value AC20 from 2 μM-5 μM) |
| O=C(Nc1ccns1)N1CCC(C2(S(=O)(=O)c3cc(F)cc(F)c3)CC2)CC1 [Compound 203, 4-(1-((3,5-difluorophenyl)sulfonyl)cyclopropyl)-N-(isothiazol-5-yl)piperidine-1-carboxamide] | +++ (+++ represents myosin activation value AC20 < 2 μM) |
| C[C@@](F)(C1CCN(C(=O)Nc2ccc(C#N)nc2)CC1)S(=O)(=O)c1cccc(F)c1 [Compound 291, (S)-N-(6-cyanopyridin-3-yl)-4-(1-fluoro-1-((3-fluorophenyl)sulfonyl)ethyl)piperidine-1-carboxamide] | + (+ represents myosin activation value AC20 > 5 μM) |
| Cn1nccc1S(=O)(=O)C(C)(F)C1CCN(C(=O)Nc2cccnc2)CC1 (centres unmarked) [Compound 227, 4-(1-fluoro-1-((1-methyl-1H-pyrazol-5-yl)sulfonyl)ethyl)-N-(pyridin-3-yl)piperidine-1-carboxamide] | + (+ represents myosin activation value AC20 > 5 μM) |
| Cn1nc(C(F)(F)F)cc1S(=O)(=O)C(C)(C)C1CCN(C(=O)Nc2ccc(F)nc2)CC1 [Compound 123, N-(6-fluoropyridin-3-yl)-4-(2-((1-methyl-3-(trifluoromethyl)-1H-pyrazol-5-yl)sulfonyl)propan-2-yl)piperidine-1-carboxamide] | ++ (++ represents myosin activation value AC20 from 2 μM-5 μM) |
| O=C(Nc1ccnnc1)N1CCC(C(F)(F)S(=O)(=O)c2cccc(C(F)(F)F)c2)CC1 [Compound 49, 4-(difluoro((3-(trifluoromethyl)phenyl)sulfonyl)methyl)-N-(pyridazin-4-yl)piperidine-1-carboxamide] | ++ (++ represents myosin activation value AC20 from 2 μM-5 μM) |
| COc1ccc(S(=O)(=O)[C@](C)(F)C2CCN(C(=O)Nc3ccon3)CC2)cn1 [Compound 307, (S)-4-(1-fluoro-1-((6-methoxypyridin-3-yl)sulfonyl)ethyl)-N-(isoxazol-3-yl)piperidine-1-carboxamide] | + (+ represents myosin activation value AC20 > 5 μM) |
| CC(C)(C1CCN(C(=O)Nc2ccns2)CC1)S(=O)(=O)c1cccc(F)c1 [Compound 218, 4-(2-((3-fluorophenyl)sulfonyl)propan-2-yl)-N-(isothiazol-5-yl)piperidine-1-carboxamide] | ++ (++ represents myosin activation value AC20 from 2 μM-5 μM) |
| CC(F)(C1CCN(C(=O)Nc2cncc(F)c2)CC1)S(=O)(=O)c1cccc(F)c1 (centres unmarked) [Compound 223, 4-(1-fluoro-1-((3-fluorophenyl)sulfonyl)ethyl)-N-(5-fluoropyridin-3-yl)piperidine-1-carboxamide] | + (+ represents myosin activation value AC20 > 5 μM) |
| Cn1nccc1S(=O)(=O)C(C)(C)C1CCN(C(=O)Nc2ccnc(F)c2)CC1 [Compound 134, N-(2-fluoropyridin-4-yl)-4-(2-((1-methyl-1H-pyrazol-5-yl)sulfonyl)propan-2-yl)piperidine-1-carboxamide] | ++ (++ represents myosin activation value AC20 from 2 μM-5 μM) |
| CC(F)(C1CCN(C(=O)Nc2cccnc2)CC1)S(=O)(=O)c1cccc(F)c1 (centres unmarked) [Compound 224, 4-(1-fluoro-1-((3-fluorophenyl)sulfonyl)ethyl)-N-(pyridin-3-yl)piperidine-1-carboxamide] | ++ (++ represents myosin activation value AC20 from 2 μM-5 μM) |
| O=C(Nc1ccncc1)N1CCC(C2(S(=O)(=O)c3cccc(F)c3)CCC2)CC1 [Compound 42, 4-(1-((3-fluorophenyl)sulfonyl)cyclobutyl)-N-(pyridin-4-yl)piperidine-1-carboxamide] | +++ (+++ represents myosin activation value AC20 < 2 μM) |
